{"source": "patent US9125916B2", "about": "“Methods of treating hypertrophic cardiomyopathy” (Gilead Sciences, Inc., priority 2013, dated 2015)", "origin": "cited, not measured here", "system": "human cardiac tissue derived from patients with symptomatic HCM", "settings": "Circulation 2013, 127 (5):575-584"}
{"smiles": "COc1ccccc1OCC(O)CN1CCN(CC(=O)Nc2c(C)cccc2C)CC1", "note": "(stereo not shown) [ranolazine]", "values": [{"measurement": "effect of inhibition of late INa on electrical and mechanical abnormalities characteristic of HCM", "result": "reverse multiple electrical and mechanical abnormalities characteristic of the disease"}]}
